Data from US20180071317A1, “USE OF AGENTS THAT ALTER THE PERITUMORAL ENVIRONMENT FOR THE TREATMENT OF CANCER” (SERVICIO ANDALUZ DE SALUD, priority 2011, published 2018).

Tests used:
[1] = test system: fibroblasts of tumors produced by human glioma tumor line (GAMG); assay: Marker expression (IHC) in fibroblasts of tumor or peritumoral area, mouse model, GAMG; assay type: in vivo; conditions: GAMG tumors in mice, 30 mg/kg/day oral, 7 days
Method: In vitro tests conducted in Example 5 are now carried out in an experimental model in mice in vivo. […] Subsequently, the expression in fibroblasts tumoral and peritumoral area of molecular markers associated with progression and maintenance of tumors: TGF-α, TGF-β1, TGF-β2, TGF-β3, MMP-7, MMP-11, MMP-14 were analyzed by immunohistochemistry.
Were injected with 2×10^7 cells tumors (corresponding, in each case to each of the tumor types as specified in Table 9) in 200 of PBS subcutaneously μl. […] Mice were randomized into two groups when the tumors reached a volume of 75 mm^3 One group was treated with non-peptide receptor antagonists NK1 and the other with placebo 200μ1. […] Tumors and samples of non-neoplastic stromal areas remote from the tumor were halved, formalin fixed (4%) and then were included in paraffin blocks for analysis by immunohistochemistry.
The expression on fibroblast cells obtained in the animal model was analyzed by immunohistochemistry, of the above markers: TGF-α, TGF-β1, TGF-β2, TGF-β3, MMP-7, MMP-1 1, MMP-14MP-14. Tables 32 to 35 depict the type of label used and the average percentage of fibroblasts present in non-tumor areas, tumor and peritumoral (±SD) which were expressing the marker shown in each of the tumor types developed from of the different cell lines used. This process was realized in mice treated with non-peptide antagonists of NK1 receptor and in untreated animals (control).

[2] = test system: fibroblasts (PHF) co-cultured with tumor cells in human prostate carcinoma (22Rv1); assay: Marker expression (IHC) in PHF co-cultured with 22Rv1 tumor cells; assay type: cell-based; conditions: co-culture with 22Rv1; SP 1 μM + antagonist 1 μM; 48 h;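 further: cultures grown on fresh plasma from a healthy donor, each experiment run sixfold, values give the percentage of fibroblasts positive for the given marker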
Method: (§1) All cultures were maintained 48 hours, following which the same cells were included in paraffin blocks for subsequent analysis of the expression of different markers by immunohistochemistry (see Example 1). […] All experiments were carried out sixfold. Analyzed markers in fibroblast cells (stromal cells) were: TGF-α, TGF-β1, TGF-β2, TGF-β3, SPARC, MMP-3, MMP-7, MMP-9, MMP-11, MMP-13 and MMP-14.

[3] = test system: fibroblasts (PHF) co-cultured with tumor cells of human gastric adenocarcinoma (23132/87); assay: Marker expression (IHC) in PHF co-cultured with 23132/87 tumor cells; assay type: cell-based; conditions: co-culture with 23132/87; SP 1 μM + antagonist 1 μM; 48 h;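 further: cultures grown in fresh plasma from a healthy human donor, values give the percentage of PHF fibroblasts positive for the marker, each experiment run in six replicates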
Method: All cultures were maintained 48 hours, following which the same cells were included in paraffin blocks for subsequent analysis of the expression of different markers by immunohistochemistry (see Example 1). The primary antibodies used to perform immunohistochemical assays and their concentration are detailed in Example 2. All experiments were carried out sixfold. Analyzed markers in fibroblast cells (stromal cells) were: TGF-α, TGF-β1, TGF-β2, TGF-β3, SPARC, MMP-3, MMP-7, MMP-9, MMP-11, MMP-13 and MMP-14.

polymorphonuclear cells = assay: Marker expression (immunohistochemistry) in polymorphonuclear blood cells with SP alone or with NK1 antagonists; assay type: cell-based, human; conditions: SP 1 μM + antagonist 1 μM; 48 h
Source text: Briefly, heparinized blood from healthy donors was centrifuged so as to separate the various components thereof. Red blood cells remained at the bottom of the tube. Above them was a small white layer composed of the white blood cells and above, on top of the tube, the blood plasma. The layer of white cells was distributed in a culture plate of 24 wells by adding in each the same concentration of blood plasma from the same donor, supplemented with 1% antibiotic-antimycotic (Invitrogen). In each well, approximately 1000 cells (PHF) skin from the dermis were further added, obtained as previously described in Example 2. […] After 48 hours of incubation, cells were collected and embedded in paraffin for expression analysis by immunohistochemical techniques (as described in Example 1).
The expression of TGF molecular markers (anti-TGF 2, SAB4502956) and NF-kB (anti-NF-kB, SAB4501992) using specific antibodies against them were analyzed. All antibodies used were rabbit polyclonal antibodies obtained from Sigma Aldrich and were used at a concentration of 1/1000. All experiments were carried out sixfold.

[4] = test system: co-cultures of tumor cells-endothelial cells (C-12210); assay: Inhibition/survival in co-cultures of primary human tumor cells and endothelial cells; assay type: cell-based; conditions: survival in reference to control, SP 1 μM, Vestipitant 1 μM
Method: To check that the interaction of primary tumor cells extracted directly from human with human vascular endothelial cells, promotes the survival of both cell types, co-cultures were performed microvascular endothelial cells from juvenile foreskins (PromoCell GmbH, Sickingenstraβe 63/65, D-69126 Heidelberg, Germany; reference C-12210) with tumor cells obtained directly from primary human tumors.
A total of 6 wells containing tumor cells were used as control for survival. Another 6 wells containing tumor cells were cultured with addition of endothelial cells.
Subsequently, cells were embedded in paraffin for analysis by immunohistochemistry. In order to identify the different cell types and quantity of them [They were labelled with primary antibodies specific for human endothelial cells (anti-CD31), carcinoma cells (Anti-Cytokeratins Spread Spectrum), glioma (Anti-glial fibrillary acidic protein), fibrosarcoma and malignant fibrous histiocytoma (Anti-Smooth Muscle Actin), Ewing sarcoma (Anti-CD99), Melanoma (Anti-HMB45), leukemias and lymphomas (Anti-Common Antigen Leucitario) and myeloma (anti CD 138). All antibodies are distributed by Dako and were used at the same concentration which is supplied (supplied pre-diluted—“ready to use”).

[5] = test system: leukocyte cells (mono and polymorphonuclear) in co-culture with cells isolated from primary human tumors; assay: Marker expression (IHC) in leukocytes co-cultured with primary human tumor cells (colon, pancreatic, lung carcinoma, glioma, melanoma); assay type: cell-based; conditions: SP 1 μM + antagonist 1 μM;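 further: tumor cells and leukocytes came from the same patients, co-culture contents were paraffin-embedded for immunohistochemistry with antibodies to TGF-β2 or NF-kB, leukocytes cultured alone served as control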
Method: To check that the interaction of the human primary tumor cells with cells of the immune/inflammatory (mono and polymorphonuclear leukocytes) cells, stimulates the secretion of substances of importance for survival and tumor progression, cultures were carried out using sets of immune cells/inflammatory (mono and polymorphonuclear leukocytes) with tumor cells obtained directly from primary human tumors of the same patients.
The same method described in Example 7 and 9 was used to obtain tumor cells from primary human tumors. Similarly cultured immune cells/inflammatory (mono and polymorphonuclear leukocytes) were used as control and secondly, cultured tumor cells isolated from patients in the presence of immune cells/inflammatory (mono and polymorphonuclear leukocytes).
Then, paraffin blocks were prepared with the contents of each of the groups mentioned previously for expression studies using immunohistochemistry. On this occasion, in order to identify the secretion of substances with importance for the survival and progression of tumor the following markers were analyzed: TGF-β2 (SAB4502956) and NF-kB (SAB4501992) using specific antibodies against them. All antibodies used were rabbit polyclonal antibodies obtained from Sigma Aldrich and were used at a concentration of 1/1000. Immunohistochemical techniques were performed and evaluated as described in previous examples.

[6] = test system: fibroblasts (PHF) co-cultured with human choriocarcinoma tumor cells (AC-1M32); assay: Marker expression (IHC) in PHF co-cultured with AC-1M32 tumor cells; assay type: cell-based; conditions: co-culture with AC-1M32; SP 1 μM + antagonist 1 μM; 48 h;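 further: Read-out is the percentage of PHF fibroblasts positive for each marker, with cells grown in fresh healthy-donor blood plasma, six replicates, reference being fibroblasts cultured alone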
Method: as §1

[7] = Carcinoma of lung, (Small cell carcinoma in Table 36)
[8] = Carcinoma of lung, Non Small Cell Carcinoma in Table 36
[9] = Carcinoma of thyroid, (Follicular Carcinoma in Table 36)
[10] = Carcinoma of thyroid, (Papillary Carcinoma in Table 36)
[11] = co-culture with cells isolated from colon carcinoma
[12] = co-culture with cells isolated from glioma
[13] = co-culture with cells isolated from lung carcinoma
[14] = co-culture with cells isolated from melanoma
[15] = co-culture with cells isolated from pancreatic carcinoma

Cc1cc(F)ccc1[C@H]1CNCCN1C(=O)N(C)[C@H](C)c1cc(C(F)(F)F)cc(C(F)(F)F)c1 [Vestipitant]
fibroblasts expressing MMP-7 [1]: 0%
fibroblasts expressing MMP-11 [1]: 0%
fibroblasts expressing MMP-14 [1]: 0%
fibroblasts expressing TGF-α [1]: 0%
fibroblasts expressing TGF-β 1 [1]: 0%
fibroblasts expressing TGF-β 2 [1]: 0%
fibroblasts expressing TGF-β 3 [1]: 0%
PHF cells expressing MMP-3 [2]: 0%
PHF cells expressing MMP-7 [2]: 0%
PHF cells expressing MMP-9 [2]: 0%
PHF cells expressing MMP-11 [2]: 0%
PHF cells expressing MMP-13 [2]: 0%
PHF cells expressing MMP-14 [2]: 0%
PHF cells expressing SPARC [2]: 0%
PHF cells expressing TGF-α [2]: 0%
PHF cells expressing TGF-β1 [2]: 0%
PHF cells expressing TGF-β2 [2]: 0%
PHF cells expressing TGF-β3 [2]: 0%
PHF cells expressing MMP-3 [3]: 0%
PHF cells expressing MMP-7 [3]: 0%
PHF cells expressing MMP-9 [3]: 0%
PHF cells expressing MMP-11 [3]: 0%
PHF cells expressing MMP-13 [3]: 0%
PHF cells expressing MMP-14 [3]: 0%
PHF cells expressing SPARC [3]: 0%
PHF cells expressing TGF-α [3]: 0%
PHF cells expressing TGF-β1 [3]: 0%
PHF cells expressing TGF-β2 [3]: 0%
PHF cells expressing TGF-β3 [3]: 0%
polymorphonuclear cells expressing NF-kB (polymorphonuclear cells): 0%
polymorphonuclear cells expressing TGF-β (polymorphonuclear cells): 0%
Endothelial cells co-cultured with tumor cells + SP + Vestipitant ([4]; Carcinoma of Colon): 54 ± 3%
Tumor cells co-cultured with endothelial cells + SP + Vestipitant ([4]; Carcinoma of Colon): 65 ± 6%
Endothelial cells co-cultured with tumor cells + SP + Vestipitant ([4]; Carcinoma of Pancreas): 55 ± 3%
Tumor cells co-cultured with endothelial cells + SP + Vestipitant ([4]; Carcinoma of Pancreas): 47 ± 5%
Endothelial cells co-cultured with tumor cells + SP + Vestipitant ([4]; Carcinoma of breast): 55 ± 4%
Tumor cells co-cultured with endothelial cells + SP + Vestipitant ([4]; Carcinoma of breast): 55 ± 5%
Endothelial cells co-cultured with tumor cells + SP + Vestipitant ([4]; Carcinoma of cervix): 47 ± 4%
Tumor cells co-cultured with endothelial cells + SP + Vestipitant ([4]; Carcinoma of cervix): 47 ± 4%
Endothelial cells co-cultured with tumor cells + SP + Vestipitant ([4]; Carcinoma of endometrial): 56 ± 5%
Tumor cells co-cultured with endothelial cells + SP + Vestipitant ([4]; Carcinoma of endometrial): 47 ± 6%
Endothelial cells co-cultured with tumor cells + SP + Vestipitant [4, 7]: 45 ± 6%
Tumor cells co-cultured with endothelial cells + SP + Vestipitant [4, 7]: 67 ± 5%
Endothelial cells co-cultured with tumor cells + SP + Vestipitant [4, 8]: 45 ± 3%
Tumor cells co-cultured with endothelial cells + SP + Vestipitant [4, 8]: 64 ± 6%
Endothelial cells co-cultured with tumor cells + SP + Vestipitant ([4]; Carcinoma of ovarian): 44 ± 4%
Tumor cells co-cultured with endothelial cells + SP + Vestipitant ([4]; Carcinoma of ovarian): 57 ± 6%
Endothelial cells co-cultured with tumor cells + SP + Vestipitant ([4]; Carcinoma of prostate): 51 ± 6%
Tumor cells co-cultured with endothelial cells + SP + Vestipitant ([4]; Carcinoma of prostate): 48 ± 6%
Endothelial cells co-cultured with tumor cells + SP + Vestipitant ([4]; Carcinoma of stomach): 62 ± 3%
Tumor cells co-cultured with endothelial cells + SP + Vestipitant ([4]; Carcinoma of stomach): 56 ± 4%
Endothelial cells co-cultured with tumor cells + SP + Vestipitant [4, 9]: 46 ± 4%
Tumor cells co-cultured with endothelial cells + SP + Vestipitant [4, 9]: 47 ± 5%
Endothelial cells co-cultured with tumor cells + SP + Vestipitant [4, 10]: 52 ± 5%
Tumor cells co-cultured with endothelial cells + SP + Vestipitant [4, 10]: 55 ± 6%
Endothelial cells co-cultured with tumor cells + SP + Vestipitant ([4]; Fibrosarcoma): 46 ± 7%
Tumor cells co-cultured with endothelial cells + SP + Vestipitant ([4]; Fibrosarcoma): 56 ± 7%
Endothelial cells co-cultured with tumor cells + SP + Vestipitant ([4]; Glioma): 54 ± 3%
Tumor cells co-cultured with endothelial cells + SP + Vestipitant ([4]; Glioma): 47 ± 5%
Endothelial cells co-cultured with tumor cells + SP + Vestipitant ([4]; Hodgkin's Lymphoma): 47 ± 5%
Tumor cells co-cultured with endothelial cells + SP + Vestipitant ([4]; Hodgkin's Lymphoma): 76 ± 5%
Endothelial cells co-cultured with tumor cells + SP + Vestipitant ([4]; Leukemia B): 47 ± 4%
Tumor cells co-cultured with endothelial cells + SP + Vestipitant ([4]; Leukemia B): 53 ± 5%
Endothelial cells co-cultured with tumor cells + SP + Vestipitant ([4]; Leukemia T): 57 ± 4%
Tumor cells co-cultured with endothelial cells + SP + Vestipitant ([4]; Leukemia T): 56 ± 4%
Endothelial cells co-cultured with tumor cells + SP + Vestipitant ([4]; Malignant fibrous histiocytoma): 53 ± 4%
Tumor cells co-cultured with endothelial cells + SP + Vestipitant ([4]; Malignant fibrous histiocytoma): 46 ± 7%
Endothelial cells co-cultured with tumor cells + SP + Vestipitant ([4]; Melanoma): 55 ± 5%
Tumor cells co-cultured with endothelial cells + SP + Vestipitant ([4]; Melanoma): 44 ± 4%
Endothelial cells co-cultured with tumor cells + SP + Vestipitant ([4]; Myeloma): 56 ± 7%
Tumor cells co-cultured with endothelial cells + SP + Vestipitant ([4]; Myeloma): 66 ± 3%
Endothelial cells co-cultured with tumor cells + SP + Vestipitant ([4]; Neuroblastoma): 46 ± 3%
Tumor cells co-cultured with endothelial cells + SP + Vestipitant ([4]; Neuroblastoma): 56 ± 4%
Endothelial cells co-cultured with tumor cells + SP + Vestipitant ([4]; Non-Hodgkin's Lymphoma B): 65 ± 4%
Tumor cells co-cultured with endothelial cells + SP + Vestipitant ([4]; Non-Hodgkin's Lymphoma B): 43 ± 5%
Endothelial cells co-cultured with tumor cells + SP + Vestipitant ([4]; Non-Hodgkin's Lymphoma T): 48 ± 6%
Tumor cells co-cultured with endothelial cells + SP + Vestipitant ([4]; Non-Hodgkin's Lymphoma T): 81 ± 5%
Endothelial cells co-cultured with tumor cells + SP + Vestipitant ([4]; Renal carcinoma): 54 ± 3%
Tumor cells co-cultured with endothelial cells + SP + Vestipitant ([4]; Renal carcinoma): 54 ± 4%
Endothelial cells co-cultured with tumor cells + SP + Vestipitant ([4]; Sarcoma of Ewing): 46 ± 4%
Tumor cells co-cultured with endothelial cells + SP + Vestipitant ([4]; Sarcoma of Ewing): 47 ± 6%
Percentage of mononuclear leukocytes cells which expressed NF-kB [5, 11]: 0%
Percentage of mononuclear leukocytes cells which expressed TGF-β [5, 11]: 0%
Percentage of polymorphonuclear leukocytes cells which expressed NF-kB [5, 11]: 0%
Percentage of polymorphonuclear leukocytes cells which expressed TGF-β [5, 11]: 0%
Percentage of mononuclear leukocytes cells expressing NF-kB [5, 12]: 0%
Percentage of mononuclear leukocytes cells expressing TGF-β [5, 12]: 0%
Percentage of polymorphonuclear leukocytes cells expressing NF-kB [5, 12]: 0%
Percentage of polymorphonuclear leukocytes cells expressing TGF-β [5, 12]: 0%
Percentage of mononuclear leukocytes cells which expressed NF-kB [5, 13]: 0%
Percentage of mononuclear leukocytes cells which expressed TGF-β [5, 13]: 0%
Percentage of polymorphonuclear leukocytes cells which expressed NF-kB [5, 13]: 0%
Percentage of polymorphonuclear leukocytes cells which expressed TGF-β [5, 13]: 0%
Percentage of mononuclear leukocytes cells which expressed NF-kB [5, 14]: 0%
Percentage of mononuclear leukocytes cells which expressed TGF-β [5, 14]: 0%
Percentage of polymorphonuclear leukocytes cells which expressed NF-kB [5, 14]: 0%
Percentage of polymorphonuclear leukocytes cells which expressed TGF-β [5, 14]: 0%
Percentage of mononuclear leukocytes cells which expressed NF-kB [5, 15]: 0%
Percentage of mononuclear leukocytes cells which expressed TGF-β [5, 15]: 0%
Percentage of polymorphonuclear leukocytes cells which expressed NF-kB [5, 15]: 0%
Percentage of polymorphonuclear leukocytes cells which expressed TGF-β [5, 15]: 0%
PHF cells expressing MMP-3 [6]: 0%
PHF cells expressing MMP-7 [6]: 0%
PHF cells expressing MMP-9 [6]: 0%
PHF cells expressing MMP-11 [6]: 0%
PHF cells expressing MMP-13 [6]: 0%
PHF cells expressing MMP-14 [6]: 0%
PHF cells expressing SPARC [6]: 0%
PHF cells expressing TGF-α [6]: 0%
PHF cells expressing TGF-β1 [6]: 0%
PHF cells expressing TGF-β2 [6]: 0%
PHF cells expressing TGF-β3 [6]: 0%
